# Values of other authors as cited in patent US20030171388A1, “Cosmetic or dermatological cream composition, the preparation and the use thereof” (priority 2003, published 2003).
# System: liver cell cultures
smiles,measurement,value
"C[N+](C)(C)C[C@H](O)CC(=O)[O-] [L-carnitine, 3-carboxy-2-hydroxy-N,N,N-trimethyl-1-propanamium-hydroxide]",effect on the membrane potential of the mitochondrion,did not cause a loss in the membrane potential of the mitochondrion
same,prevention of cell deaths,able to prevent cell deaths
